# pKi: −log10 of the molar value. Counter-ions that a name gives are not always drawn.
# Target: human GlyT1c transporter (Homo sapiens (Human), UniProt P48067)
# Assay: Radioligand binding assay using recombinant CHO cell membranes expressing human GlyT1
# Details: human GlyT1c-expressing CHO cell membranes; hydrochloride; read-out: radioligand binding Kiapp
# Source text: 2. Radioligand binding assays using recombinant CHO cell membranes expressing human GlyT1: […]
# human GlyT1c transporter, sequence (P48067 whole entry): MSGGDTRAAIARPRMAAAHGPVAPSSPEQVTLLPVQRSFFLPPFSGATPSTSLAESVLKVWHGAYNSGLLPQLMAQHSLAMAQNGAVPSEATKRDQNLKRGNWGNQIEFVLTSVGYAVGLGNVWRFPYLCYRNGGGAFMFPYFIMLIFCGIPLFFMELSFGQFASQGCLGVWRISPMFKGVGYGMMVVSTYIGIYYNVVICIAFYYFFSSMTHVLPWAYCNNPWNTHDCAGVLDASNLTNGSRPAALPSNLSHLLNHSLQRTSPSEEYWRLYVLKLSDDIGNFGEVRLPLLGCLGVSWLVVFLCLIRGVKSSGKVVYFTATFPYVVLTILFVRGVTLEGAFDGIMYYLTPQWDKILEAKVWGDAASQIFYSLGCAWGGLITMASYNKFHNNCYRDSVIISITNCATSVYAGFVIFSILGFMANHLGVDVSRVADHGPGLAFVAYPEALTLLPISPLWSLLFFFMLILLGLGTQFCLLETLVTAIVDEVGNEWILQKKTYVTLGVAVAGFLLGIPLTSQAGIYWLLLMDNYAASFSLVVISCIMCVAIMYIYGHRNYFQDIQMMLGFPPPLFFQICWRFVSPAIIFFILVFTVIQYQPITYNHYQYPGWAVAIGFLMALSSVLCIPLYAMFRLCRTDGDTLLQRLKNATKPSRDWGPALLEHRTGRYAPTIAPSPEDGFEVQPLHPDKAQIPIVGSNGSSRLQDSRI
row,SMILES,pKi
1,"Cn1cnc(S(=O)(=O)NCCOc2ccc3c(c2)C(Cc2ccccc2)C(N2CCCC2)CC3)c1 (stereo not shown) [Example 116, N-(2-(8-Benzyl-7-(pyrrolidin-1-yl)-5,6,7,8-tetrahydronaphthalen-2-yloxy)ethyl)-1-methyl-1H-imidazole-4-sulfonamide hydrochloride]",≥ 8.00
2,"Cn1cnc(S(=O)(=O)NCCOc2ccc3c(c2)C(Cc2ccccc2)C(N2CCCC2)CC3)c1 (single isomer, unassigned; (+)) [Example 118, (+)-N-(2-(8-benzyl-7-(pyrrolidin-1-yl)-5,6,7,8-tetrahydronaphthalen-2-yloxy)ethyl)-1-methyl-1H-imidazole-4-sulfonamide hydrochloride]",≥ 7.00

# Same assay, conditions: human GlyT1c-expressing CHO cell membranes; read-out: radioligand binding Kiapp
row,SMILES,pKi
1,"CCCS(=O)(=O)NCCCc1ccc2c(c1)C(Cc1cccc(Cl)c1)C(N1CCCC1)CC2 (stereo not shown) [Example 264, N-{3-[8-(3-Chlorobenzyl)-7-(pyrrolidin-1-yl)-5,6,7,8-tetrahydronaphthalen-2-yl]propyl}propane-1-sulfonamide hydrochloride]",≥ 6.00
2,"CCCS(=O)(=O)N(CCOc1ccc2c(c1)C(Cc1cccc(Cl)c1)C(N)CC2)C1CC1 (stereo not shown) [Example 281, Propane-1-sulfonic acid {2-[7-amino-8-(3-chloro-benzyl)-5,6,7,8-tetrahydro-naphthalen-2-yloxy]-ethyl}-cyclopropyl-amide hydrochloride]",≥ 7.00
3,"NC1CCc2ccc(OCCNS(=O)(=O)CC3CC3)cc2C1Cc1ccc(F)c(F)c1 (stereo not shown) [Example 131, N-(2-{[7-Amino-8-(3,4-difluorobenzyl)-5,6,7,8-tetrahydronaphthalen-2-yl]oxy}ethyl)-1-cyclopropylmethanesulfonamide hydrochloride]",≥ 7.00
4,"CNC1CCc2ccc(OCCNS(=O)(=O)CC3CC3)cc2C1Cc1ccccc1 (stereo not shown) [Example 137, N-(2-{[8-Benzyl-7-(methylamino)-5,6,7,8-tetrahydronaphthalen-2-yl]oxy}ethyl)-1-cyclopropylmethanesulfonamide hydrochloride]",≥ 8.00
5,"NC1CCc2ccc(OCCNC(=O)CC3CC3)cc2C1Cc1ccc(Cl)c(Cl)c1 (stereo not shown) [Example 122, N-(2-{[7-Amino-8-(3,4-dichlorobenzyl)-5,6,7,8-tetrahydronaphthalen-2-yl]oxy}ethyl)-2-cyclopropylacetamide hydrochloride]",≥ 5.00
6,"CCCS(=O)(=O)NCCCc1ccc2c(c1)C(Cc1ccccc1)C(NC(C)C)CC2 (stereo not shown) [Example 273, N-{3-[8-Benzyl-7-(propan-2-ylamino)-5,6,7,8-tetrahydronaphthalen-2-yl]propyl}propane-1-sulfonamide hydrochloride]",≥ 6.00
7,CCCS(=O)(=O)N(CCOc1ccc2c(c1)C(Cc1ccccc1)C(NC(=O)OCC)CC2)C1CC1 (stereo not shown) [Example 280],≥ 5.00
8,"NC1CCc2ccc(CNS(=O)(=O)C3CCC3)cc2C1Cc1ccc(F)c(F)c1 (stereo not shown) [Example 186, N-{[7-Amino-8-(3,4-difluorobenzyl)-5,6,7,8-tetrahydronaphthalen-2-yl]methyl}cyclobutanesulfonamide hydrochloride]",≥ 6.00
9,"CN(CCOc1ccc2c(c1)C(Cc1ccc(Cl)c(Cl)c1)C(N)CC2)S(=O)(=O)CC1CC1 (stereo not shown) [Example 108, N-{2-[7-Amino-8-(3,4-dichloro-benzyl)-5,6,7,8-tetrahydro-naphthalen-2-yloxy]-ethyl}-C-cyclopropyl-N-methyl-methanesulfonamide hydrochloride]",≥ 8.00
10,"CCCS(=O)(=O)NCCOc1ccc2c(c1)C(Cc1cccc(F)c1)C(N)CC2 (stereo not shown) [Example 107, Propane-1-sulfonic acid {2-[7-amino-8-(3-fluoro-benzyl)-5,6,7,8-tetrahydro-naphthalen-2-yloxy]-ethyl}-amide hydrochloride]",≥ 7.00
11,"Cn1cnc(S(=O)(=O)NCCOc2ccc3c(c2)C(Cc2ccccc2)C(N2CCC(F)C2)CC3)c1 (stereo not shown) [Example 152, N-[2-({8-Benzyl-7-[3-fluoropyrrolidin-1-yl]-5,6,7,8-tetrahydronaphthalen-2-yl}oxy)ethyl]-1-methyl-1H-imidazole-4-sulfonamide hydrochloride]",≥ 8.00
12,"O=S(=O)(CC1CC1)NCCOc1ccc2c(c1)C(Cc1cccc(Cl)c1)C(N1CCCC1)CC2 (stereo not shown) [Example 317, N-{2-[8-(3-Chloro-benzyl)-7-pyrrolidin-1-yl-5,6,7,8-tetrahydro-naphthalen-2-yloxy]-ethyl}-C-cyclopropyl-methanesulfonamide hydrochloride]",≥ 7.00
13,"CCCS(=O)(=O)CCc1ccc2c(c1)C(Cc1cccc(Cl)c1)C(N)CC2 (stereo not shown) [Example 326, 1-(3-Chloro-benzyl)-7-[2-(propane-1-sulfonyl)-ethyl]-1,2,3,4-tetrahydro-naphthalen-2-ylamine hydrochloride]",≥ 6.00
14,"CCCS(=O)(=O)N1CC(COc2ccc3c(c2)C(Cc2cccc(Cl)c2)C(NC(=O)OCC)CC3)C1 (stereo not shown) [Example 285, {1-(3-Chloro-benzyl)-7-[1-(propane-1-sulfonyl)-azetidin-3-ylmethoxy]-1,2,3,4-tetrahydronaphthalen-2-yl}-carbamic acid ethyl ester]",≥ 5.00
15,"CCNC1CCc2ccc(CCCNS(=O)(=O)CC3CC3)cc2C1Cc1ccc(F)c(F)c1 (stereo not shown) [Example 226, 1-Cyclopropyl-N-{3-[8-(3,4-difluorobenzyl)-7-(ethylamino)-5,6,7,8-tetrahydronaphthalen-2-yl]propyl}methanesulfonamide trifluoroacetate]",≥ 7.00
16,"CCCS(=O)(=O)NCCOc1ccc2c(c1)C(Cc1cccc(Cl)c1)C(N1CCCC1)CC2 (stereo not shown) [Example 323, Propane-1-sulfonic acid {2-[8-(3-chloro-benzyl)-7-pyrrolidin-1-yl-5,6,7,8-tetrahydronaphthalen-2-yloxy]-ethyl}-amide hydrochloride]",≥ 6.00
17,"CCOC(=O)NC1CCc2ccc(OCCNS(=O)(=O)c3cnn(C)c3)cc2C1Cc1ccccc1Cl (stereo not shown) [Example 299, {1-(2-Chloro-benzyl)-7-[2-(1-methyl-1H-pyrazole-4-sulfonylamino)-ethoxy]-1,2,3,4-tetrahydro-naphthalen-2-yl}-carbamic acid ethyl ester]",< 5.00
18,"CCCS(=O)(=O)NCCOc1ccc2c(c1)C(CC1CCCCC1)C(NC)CC2 (stereo not shown) [Example 314, Propane-1-sulfonic acid [2-(8-cyclohexylmethyl-7-methylamino-5,6,7,8-tetrahydronaphthalen-2-yloxy)-ethyl]-amide trifluoroacetate]",≥ 6.00
19,"NC1CCc2ccc(OCCNC(=O)c3ccccc3)cc2C1Cc1ccc(Cl)c(Cl)c1 (stereo not shown) [Example 123, N-(2-{[7-Amino-8-(3,4-dichlorobenzyl)-5,6,7,8-tetrahydronaphthalen-2-yl]oxy}ethyl)benzamide hydrochloride]",≥ 5.00
20,"CN(CCOc1ccc2c(c1)C(Cc1ccccc1)C(N1CCCC1)CC2)S(=O)(=O)CC1CC1 (stereo not shown) [Example 127, N-(2-{[8-Benzyl-7-(pyrrolidin-1-yl)-5,6,7,8-tetrahydronaphthalen-2-yl]oxy}ethyl)-1-cyclopropyl-N-methylmethanesulfonamide hydrochloride]",≥ 7.00
21,"Cn1cc(S(=O)(=O)NCc2ccc3c(c2)C(Cc2cccc(F)c2)C(N)CC3)cn1 (stereo not shown) [Example 178, N-{[7-Amino-8-(3-fluorobenzyl)-5,6,7,8-tetrahydronaphthalen-2-yl]methyl}-1-methyl-1H-pyrazole-4-sulfonamide hydrochloride]",≥ 8.00
22,"CCCS(=O)(=O)N(C)CCCc1ccc2c(c1)C(Cc1cccc(F)c1)C(N)CC2 (stereo not shown) [Example 227, N-{3-[7-Amino-8-(3-fluorobenzyl)-5,6,7,8-tetrahydronaphthalen-2-yl]propyl}-N-methylpropane-1-sulfonamide hydrochloride]",≥ 7.00
23,"Cn1cnc(S(=O)(=O)NCc2ccc3c(c2)C(Cc2cccc(F)c2)C(N2CCC2)CC3)c1 (stereo not shown) [Example 256, N-{[7-(Azetidin-1-yl)-8-(3-fluorobenzyl)-5,6,7,8-tetrahydronaphthalen-2-yl]methyl}-1-methyl-1H-imidazole-4-sulfonamide hydrochloride]",≥ 7.00
24,"Cn1ccc(S(=O)(=O)NCc2ccc3c(c2)C(Cc2ccccc2)C(N2CCC2)CC3)c1 (stereo not shown) [Example 251, N-{[7-(Azetidin-1-yl)-8-benzyl-5,6,7,8-tetrahydronaphthalen-2-yl]methyl}-1-methyl-1H-pyrrole-3-sulfonamide trifluoroacetate]",≥ 7.00
25,"CC(C)NC1CCc2ccc(OCCNS(=O)(=O)c3cn(C)cn3)cc2C1Cc1cccc(C#N)c1 (stereo not shown) [Example 154, N-(2-{[8-(3-Cyanobenzyl)-7-(propan-2-ylamino)-5,6,7,8-tetrahydronaphthalen-2-yl]oxy}ethyl)-1-methyl-1H-imidazole-4-sulfonamide hydrochloride]",≥ 7.00
26,"CN(CCOc1ccc2c(c1)C(Cc1ccc(Cl)c(Cl)c1)C(N1CCCC1)CC2)S(=O)(=O)c1cnn(C)c1 (stereo not shown) [Example 89, 1-Methyl-1H-pyrazole-4-sulfonic acid {2-[8-(3,4-dichloro-benzyl)-7-pyrrolidin-1-yl-5,6,7,8-tetrahydro-naphthalen-2-yloxy]-ethyl}-methyl-amide hydrochloride]",≥ 7.00
27,"CNC1CCc2ccc(CNS(=O)(=O)c3cccc(C)c3)cc2C1Cc1ccccc1 (stereo not shown) [Example 189, N-{[8-Benzyl-7-(methylamino)-5,6,7,8-tetrahydronaphthalen-2-yl]methyl}-3-methylbenzenesulfonamide hydrochloride]",≥ 5.00
28,"Cn1cnc(S(=O)(=O)NCCOc2ccc3c(c2)C(Cc2cccc(Cl)c2)C(N2CCCC2)CC3)c1 (stereo not shown) [Example 319, 1-Methyl-1H-imidazole-4-sulfonic acid {2-[8-(3-chloro-benzyl)-7-pyrrolidin-1-yl-5,6,7,8-tetrahydro-naphthalen-2-yloxy]-ethyl}-amide hydrochloride]",≥ 7.00

# Same assay, conditions: human GlyT1c-expressing CHO cell membranes; succinate; read-out: radioligand binding Kiapp
row,SMILES,pKi
1,"O=S(=O)(CC1CC1)NCCOc1ccc2c(c1)C(Cc1ccccc1)C(N1CCC1)CC2 (single isomer, unassigned; (+)) [Example 144, (+)-N-(2-(7-(azetidin-1-yl)-8-benzyl-5,6,7,8-tetrahydronaphthalen-2-yloxy)ethyl)-1-cyclopropylmethanesulfonamide succinate]",≥ 6.00
